Laboratory results taken from patent US8629283B2, “Compounds that modulate negative-sense, single-stranded RNA virus replication and uses thereof” (Icahn School of Medicine at Mount Sinai, priority 2008, dated 2014).
Like-named read-outs stand apart in the source and are kept apart here. Marks after values point to notes of the source that are not given here.

Legend:
A549 cells = conditions: for concentrations found non-toxic / not decreasing cell viability, up to: A549 cells, 24 h, MTS assay
influenza A virus (FluA) [1] = tested on: influenza A virus (FluA)
in vitro = conditions: human
influenza A virus (FluA) [2] = experiment: in vitro; conditions: human
influenza A virus (FluA) [3] = experiment: microbe, parasite or virus in culture; conditions: A549, read-out: IC50 (A549)
influenza A/WSN/33 virus [4] = tested on: influenza A/WSN/33 virus
influenza A/WSN/33 virus [5] = type: cell-based
[6] = tested on: influenza B/Yamagata/88 virus; type: cell-based
[7] = tested on: influenza A/Wyoming/03/2003 virus; type: cell-based
[8] = tested on: influenza A/Moscow/10/99 virus; type: cell-based
[9] = tested on: Newcastle disease virus (NDV/B1); type: cell-based
[10] = tested on: vesicular stomatitis virus (VSV); type: cell-based
influenza A/WSN/33 virus [11] = experiment: microbe, parasite or virus in culture; conditions: A549, 24 h
[12] = molecular target: influenza viral RNA polymerase (Influenza A virus, UniProt P03427+P03430+P15659); type: cell-based
[13] = read-out: IC50 (compound concentration of 50% inhibition of viral replication)

O=C(CSc1nnc(-c2cc3ccccc3[nH]2)o1)N1CCCC1 [A3-7]
CC10 (A549), concentration of 10% cytotoxicity (A549 cells; human): 15.2 µM
Inhibition of FluA (Table 5) (influenza A virus (FluA) [1]): ~29%**
CC50 (in vitro): 134 µM

Cc1[nH]c2ccc(-c3nnc(SCC(=O)N4CCOCC4)o3)cc2c1C [A3-5, 2-(5-(2,3-dimethyl-1H-indol-5-yl)-1,3,4-oxadiazol-2-ylthio)-1-morpholinoethanone]
CC10 (A549), concentration of 10% cytotoxicity (A549 cells; human): 10.2 µM
Inhibition of FluA (Table 5) (influenza A virus (FluA) [1]): ~97%**
CC50 (in vitro): 257 µM
selectivity ratio (influenza A virus (FluA) [2]): 514
IC50 (influenza A virus (FluA) [3]): 0.5 µM

CN(c1nc(-c2ccccc2)cs1)C1CCS(=O)(=O)C1 (stereo not drawn) [A35-2]
CC10 (A549), concentration of 10% cytotoxicity (A549 cells; human): 12.2 µM
Inhibition of FluA (Table 5) (influenza A virus (FluA) [1]): none**
CC50 (in vitro): 148 µM

N/C(=N\C(=O)c1nc(Cl)c(N)nc1N)NCc1ccc(Cl)c(Cl)c1 [3′,4′-dichlorobenzamil]
efficiency of growth enhancement relative to 2′,4′-dichlorobenzamil (influenza A/WSN/33 virus [4]): 10 times less efficient
influenza virus growth versus untreated control (influenza A/WSN/33 virus [4]): boost influenza virus replication

O=C(CSc1nnc(-c2cccnc2)o1)N1CCCC1 [A3-11]
CC10 (A549), concentration of 10% cytotoxicity (A549 cells; human): 32.6 µM
Inhibition of FluA (Table 5) (influenza A virus (FluA) [1]): none**
CC50 (in vitro): 249 µM

O=C(CSc1nnc(-c2ccncc2)o1)N1CCCC1 [A3-12]
CC10 (A549), concentration of 10% cytotoxicity (A549 cells; human): 11.5 µM
Inhibition of FluA (Table 5) (influenza A virus (FluA) [1]): ~29%**
CC50 (in vitro): 186 µM

CCCCCCCCCCCCCC(=O)O[C@@H]1[C@@H](C)[C@@]2(O)[C@@H](C=C(CO)C[C@]3(O)C(=O)C(C)=C[C@@H]23)[C@@H]2C(C)(C)[C@]12OC(C)=O [PMA, phorbol 12-myristate 13-acetate]
HTS result (luciferase signal of influenza mini-genome reporter) (influenza A/WSN/33 virus [5]): not originally recognized in the screen as an enhancer
increase of viral titer compared to untreated cells (influenza A/WSN/33 virus [4]): 12 fold

C=C(C)[C@@]12O[C@@]3(c4ccccc4)O[C@@H]1[C@@H]1[C@@H]4O[C@]4(CO)[C@@H](O)[C@]4(O)C(=O)C(C)=C[C@H]4[C@@]1(O3)[C@H](C)[C@H]2OC(=O)/C=C/C=C/c1ccccc1 [mezerein]
increase of viral titer compared to untreated cells [6]: 8 fold
maximum viral titer compared to untreated cells [7]: significant increase
maximum viral titer compared to untreated cells [8]: significant increase
increase in viral titers in Vero cells (influenza A/WSN/33 virus [4]): 15 fold
increase of viral titer compared to untreated cells (influenza A/WSN/33 virus [4]): 17 fold

lanatoside C
HTS result (luciferase signal of influenza mini-genome reporter) (influenza A/WSN/33 virus [5]): potential influenza virus inhibitors
inhibition of NDV replication [9]: significantly inhibited
inhibition of VSV replication [10]: significantly inhibited
CC50 (A549 cells): 0.21 µM
concentration that maintained at least an 80% cell viability (CC20) (A549 cells): 0.078 µM
decrease of viral titer compared to untreated control (influenza A/WSN/33 virus [4]): 95.9%

C[C@@H]1O[C@@H](O[C@H]2C[C@@H](O)[C@]3(CO)[C@H]4[C@H](O)C[C@]5(C)[C@@H](C6=CC(=O)OC6)CC[C@]5(O)[C@@H]4CC[C@]3(O)C2)[C@H](O)[C@H](O)[C@H]1O [ouabain]
HTS result (luciferase signal of influenza mini-genome reporter) (influenza A/WSN/33 virus [5]): potential influenza virus inhibitors
inhibition of NDV replication [9]: significantly inhibited
inhibition of VSV replication [10]: significantly inhibited
CC50 (A549 cells; human): 0.047 µM
concentration that maintained at least an 80% cell viability (CC20) (A549 cells; human): 0.02 µM
decrease of viral titer compared to untreated control (influenza A/WSN/33 virus [4]): 99.1%

Nc1nc(-c2ccc(Cl)cc2)cs1 [A35-3]
CC10 (A549), concentration of 10% cytotoxicity (A549 cells; human): 11.4 µM
Inhibition of FluA (Table 5) (influenza A virus (FluA) [1]): none**
CC50 (in vitro): 165 µM

Cc1[nH]c2ccc(-c3nnc(SCC(=O)N4CCc5ccccc54)o3)cc2c1C [A3-3, 2-(5-(2,3-dimethyl-1H-indol-5-yl)-1,3,4-oxadiazol-2-ylthio)-1-(indolin-1-yl)ethanone]
CC10 (A549), concentration of 10% cytotoxicity (A549 cells; human): 8.5 µM
Inhibition of FluA (Table 5) (influenza A virus (FluA) [1]): ~50%**
CC50 (in vitro): 65 µM
selectivity ratio (influenza A virus (FluA) [2]): 8
IC50 (influenza A virus (FluA) [3]): 8.5 µM

C[C@]12CC[C@H]3[C@@H](CC[C@]4(O)C[C@@H](O)CC[C@]34C=O)[C@@]1(O)CC[C@@H]2C1=CC(=O)OC1 [strophanthidin]
HTS result (luciferase signal of influenza mini-genome reporter) (influenza A/WSN/33 virus [5]): potential influenza virus inhibitors

CCN(CC)S(=O)(=O)c1ccc(-c2nnc(SCC(=O)N3CCCC3)o2)cc1 [A3-1]
CC10 (A549), concentration of 10% cytotoxicity (A549 cells; human): 17.3 µM
Inhibition of FluA (Table 5) (influenza A virus (FluA) [1]): ~29%**
CC50 (in vitro): 316 µM

CC(=O)c1c(O)c(C)c(O)c(Cc2c(O)c3c(c(C(=O)/C=C/c4ccccc4)c2O)OC(C)(C)C=C3)c1O [rottlerin]
HTS result (luciferase signal of influenza mini-genome reporter) (influenza A/WSN/33 virus [5]): potential influenza virus inhibitors
reduction in viral titer compared to untreated control [6]: 80%
concentrations found non-toxic / not decreasing cell viability, up to (A549 cells): up to 1.28 μM
SI [CC50/IC50] selective index (influenza A/WSN/33 virus [4]): 39
reduction in viral titer compared to untreated control (influenza A/WSN/33 virus [4]): 93%
IC50 (influenza A/WSN/33 virus [11]; [13]): 0.46 µM
IC50 (influenza A/WSN/33 virus [11]; read-out: IC50 (half maximal inhibitory concentration)): 0.465 µM

C[C@H]1O[C@@H](O[C@H]2[C@@H](O)C[C@H](O[C@H]3[C@@H](O)C[C@H](O[C@H]4CC[C@@]5(C)[C@H](CC[C@@H]6[C@@H]5C[C@@H](O)[C@]5(C)[C@@H](C7=CC(=O)OC7)CC[C@]65O)C4)O[C@@H]3C)O[C@@H]2C)C[C@H](O)[C@@H]1O [digoxin]
HTS result (luciferase signal of influenza mini-genome reporter) (influenza A/WSN/33 virus [5]): potential influenza virus inhibitors

Cc1[nH]c2ccc(-c3nnc(SCC(=O)N4CCCCCC4)o3)cc2c1C [A3-6, 1-(azepan-1-yl)-2-(5-(2,3-dimethyl-1H-indol-5-yl)-1,3,4-oxadiazol-2-ylthio)ethanone]
CC10 (A549), concentration of 10% cytotoxicity (A549 cells; human): 18.2 µM
Inhibition of FluA (Table 5) (influenza A virus (FluA) [1]): ~87.5%**
CC50 (in vitro): 179 µM
selectivity ratio (influenza A virus (FluA) [2]): 180
IC50 (influenza A virus (FluA) [3]): 0.98 µM

N#Cc1cc2c(OCC(O)CN3CCN(C(c4ccccc4)c4ccccc4)CC3)cccc2[nH]1 (stereo not drawn) [SDZ-201106]
HTS result (luciferase signal of influenza mini-genome reporter) (influenza A/WSN/33 virus [5]): potential influenza virus inhibitors
reduction in viral growth/titer compared to untreated control [6]: 72%
concentrations found non-toxic / not decreasing cell viability, up to (A549 cells): up to 12.5 μM
SI [CC50/IC50] selective index (influenza A/WSN/33 virus [4]): 7
reduction in viral titer compared to untreated control (influenza A/WSN/33 virus [4]): 85%
IC50 (influenza A/WSN/33 virus [4]; [13]): 4.1 µM

CN(Cc1ccccc1)c1nc(-c2ccc([N+](=O)[O-])cc2)cs1 [A35-1, N-methyl-4-(4-nitrophenyl)-N-(phenylmethyl)-2-thiazolamine]
CC10 (A549), concentration of 10% cytotoxicity (A549 cells; human): 10.8 µM
Inhibition of FluA (Table 5) (influenza A virus (FluA) [1]): ~75%**
CC50 (in vitro): 201 µM
selectivity ratio (influenza A virus (FluA) [2]): 62
IC50 (influenza A virus (FluA) [3]): 3.24 µM

CCN(CC)C(=O)CSc1nnc(-c2ccc3[nH]c(C)c(C)c3c2)o1 [A3-2, 2-(5-(2,3-dimethyl-1H-indol-5-yl)-1,3,4-oxadiazol-2-ylthio)-N,N-diethylacetamide]
CC10 (A549), concentration of 10% cytotoxicity (A549 cells; human): 29 µM
Inhibition of FluA (Table 5) (influenza A virus (FluA) [1]): ~97%**
CC50 (in vitro): 198 µM
selectivity ratio (influenza A virus (FluA) [2]): > 165
IC50 (influenza A virus (FluA) [3]): 1.2 µM

NC(=O)c1ncn([C@@H]2O[C@H](CO)[C@@H](O)[C@H]2O)n1 [ribavirin, reference compound]
inhibition of viral RNA polymerase activity [12]: 90%

Cc1[nH]c2ccc(-c3nnc(SCC(=O)N(C(C)C)C(C)C)o3)cc2c1C [A3-4, 2-(5-(2,3-dimethyl-1H-indol-5-yl)-1,3,4-oxadiazol-2-ylthio)-N,N-diisopropylacetamide]
CC10 (A549), concentration of 10% cytotoxicity (A549 cells; human): 10.7 µM
Inhibition of FluA (Table 5) (influenza A virus (FluA) [1]): ~87.5%**
CC50 (in vitro): 17.7 µM
selectivity ratio (influenza A virus (FluA) [2]): 11
IC50 (influenza A virus (FluA) [3]): 1.65 µM

O=C(CSc1nnc(-c2cc3ccccc3o2)o1)N1CCCC1 [A3-9]
CC10 (A549), concentration of 10% cytotoxicity (A549 cells; human): 10.9 µM
Inhibition of FluA (Table 5) (influenza A virus (FluA) [1]): ~29%**
CC50 (in vitro): 197 µM

CN(c1ccc(O)cc1)c1nc(-c2ccc(Cl)cc2)cs1 [A35-4, 4-[[4-(4-chlorophenyl)-1,3-thiazol-2-yl](methyl)amino]phenol]
CC10 (A549), concentration of 10% cytotoxicity (A549 cells; human): 6 µM
Inhibition of FluA (Table 5) (influenza A virus (FluA) [1]): ~50%**
CC50 (in vitro): 30 µM
selectivity ratio (influenza A virus (FluA) [2]): 5
IC50 (influenza A virus (FluA) [3]): 6 µM

COc1ccc(-c2nnc(SCC(=O)N3CCCC3)o2)cc1 [A3-8]
CC10 (A549), concentration of 10% cytotoxicity (A549 cells; human): 11.8 µM
Inhibition of FluA (Table 5) (influenza A virus (FluA) [1]): none**
CC50 (in vitro): 250 µM
